Measurements reported in article PMC3525754 (Biochemistry, 2012).

Key:
[1] = target: T1, DrPRODH (proline dehydrogenase from Deinococcus radiodurans R1) (Deinococcus radiodurans, UniProt Q9RW55); experiment: steady-state CoQ1 reduction, absorbance […] nm; format: biochemical
[2] = target: T1, DrPRODH (proline dehydrogenase from Deinococcus radiodurans R1); experiment: X-ray crystal structure, […] Å; format: binding; settings: crystal reduced by soaking in 50 mM sodium dithionite
[3] = target: T1, DrPRODH (proline dehydrogenase from Deinococcus radiodurans R1); experiment: X-ray crystal structure, […] Å; format: binding; settings: oxidized enzyme complexed with THFA; two ribityl conformations

T1 sequence (Q9RW55 whole entry): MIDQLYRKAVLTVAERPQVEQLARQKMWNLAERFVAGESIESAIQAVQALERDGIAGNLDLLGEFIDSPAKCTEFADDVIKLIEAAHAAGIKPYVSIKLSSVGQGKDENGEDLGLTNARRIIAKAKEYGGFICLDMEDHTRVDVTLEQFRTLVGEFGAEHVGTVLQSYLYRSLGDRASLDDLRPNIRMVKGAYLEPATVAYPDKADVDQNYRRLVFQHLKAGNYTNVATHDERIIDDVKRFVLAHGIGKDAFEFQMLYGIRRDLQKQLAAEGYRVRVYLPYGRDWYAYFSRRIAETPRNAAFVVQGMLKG

O=C(O)[C@@H]1CCCO1 [THFA]
Ki [1]: 38 mM

Cc1cc2c(cc1C)N(C[C@H](O)[C@H](O)[C@H](O)COP(=O)(O)OP(=O)(O)OC[C@H]1O[C@@H](n3cnc4c(N)ncnc43)[C@H](O)[C@@H]1O)c1[nH]c(=O)[nH]c(=O)c1N2 [reduced FAD]
X-ray crystal structure, 1.75 Å [2]: The reduced flavin of DrPRODHr exhibits just one ribityl conformation

Cc1cc2nc3c(=O)[nH]c(=O)nc-3n(C[C@H](O)[C@H](O)[C@H](O)COP(=O)(O)OP(=O)(O)OC[C@H]3O[C@@H](n4cnc5c(N)ncnc54)[C@H](O)[C@@H]3O)c2cc1C [FAD]
X-ray crystal structure, 1.36 Å [3]: The oxidized flavin exhibits two conformations
